Laboratory results reported in patent US5534416A, “Fluorescent viability assay using cyclic-substituted unsymmetrical cyanine dyes” (Molecular Probes, Inc., priority 1993, dated 1996).
Like-named read-outs stand apart in the source and are kept apart here.

What was measured:
intact cells = conditions: cited from earlier work; for pH sensitivity / Loading / Retention: in words
calf thymus DNA = conditions: Table 5; bound to excess calf thymus DNA (50 bp/dye); cited from earlier work
S. sonnei = assay: Fluorescence per cell, stained bacteria (microtiter plate reader); assay type: cell-based, Shigella sonnei; conditions: optimal dye concentration, corrected for cell number
Method: (§1) 1. Measured in a fluorescence microtiter plate reader with extraction and
(§2) emission filters at 485+/-10 and 530+/-12, respectively. Fluorescence dat
(§3) are corrected for cell number; but are not corrected for cell volume or
(§4) 2. Optimal dye concentrations determined as in Example 3.
(§5) 3. Suspension concentrations as used for Example 3.
(§6) A culture of E. coli is washed by centrifugation and resuspended in water to its original volume. Using Corning 96-well microtiter plates with flat bottoms, 150 μL volumes of suspension are loaded per well. A single well of sterile water is the well background standard. Using a Dynatech MR600 microplate reader equipped with a 410 nm filter, absorbance is determined for the initial volumes of suspension. The suspension is diluted seven times by serial ten-fold dilutions in water, 150 μL of suspension per well, and the absorbance measured for each dilution. Following the absorbance measurements, each dilution loaded into wells is further diluted 1:10 and plated in duplicate on nutrient growth agar. The colonies are counted and expressed as colony forming units per milliliter (cfu/mL). Using the turbidity of the dilution in the microtiter plate, the suspension is diluted to a density of about 1×10^9 cfu/mL.
(§7) The bacteria suspension, adjusted to a known density as described above, is diluted seven times by serial ten-fold dilutions in water; 150 μL of suspension per well. Three-fold serial dilutions of dye are used (30-0.04 μM); 50 μL of dye at 4× final concentration. Using Corning 96-well microtiter flat-bottom plates, a matrix is set up whereby the cell concentration decreases across the plate and the dye concentration decreases down the plate, final volume per well is 200 μL. The top row and first column are reserved for the control, sterile water. The plate is incubated at 37° C. for 30 minutes, then read in a Millipore Cytofluor™ 2350 96-well fluorescence microplate reader at a fixed excitation of 485+/-10 nm and each of three emission wavelengths, 530+/-12, 620+/-20, or 645+/-20 nm. The results determine the best dye range (30-1 μM) and the best cell concentrations (concentrated through first three ten-fold dilutions) for optimal dye loading. […] Using the four dye dilutions and the four bacterial dilutions, many bacteria and dyes can be assayed quickly. The data collected allow the determination of optimal dye and cell concentration required for maximal fluorescence intensity per cell.

DNA = assay: Quantum yield of dye on DNA versus fluorescein; assay type: physicochemical; conditions: for Normalized QY: QY divided by QY of thiazole orange; for QY (DNA): Table 2, Tris buffered saline pH 10, fluorescein assumed 0.92; for QY: Table 7, on DNA, fluorescein reference
Excerpt: ^ Quantum yield (QY) of dye on DNA (standard solution in Tris buffere
saline adjusted to pH 10) in comparison with fluorescein, which is assume
to have a quantum yield of 0.92 under the test conditions.
(§8) Factors such as degree of fluorescence enhancement with nucleic acid binding, self quenching, molar extinction coefficient, membrane permeability, intracellular partitioning, nucleic acid binding affinity, and quantum yield contribute to the overall fluorescence of nucleic acid stains in cells. Enhanced cell fluorescence obtained with Dye I is related to unexpected properties other than quantum yield alone. Quantum yield is determined as described above (foot note to Table 2). Normalized quantum yield is determined to illustrate the fold-change in quantum yield of Dye I compared with thiazole orange, a related cell-permeant dye. The normalized fluorescence values represent the quantum yield of each dye divided by the quantum yield of thiazole orange. Fluorescence per cell is also scaled to thiazole orange values for both E. coli and S. aureus to allow direct comparison between relative (normalized) quantum yield and relative (normalized) fluorescence/cell.

E. coli = assay: Fluorescence per cell, stained bacteria (microtiter plate reader); assay type: cell-based, Escherichia coli; conditions: for Fluorescence/Cell (ex 485/em 530): E. coli, optimal dye concentration, corrected for cell number; for Normalized Fluorescence/cell (ex 485 nm/em 530 nm), Escherichia coli: scaled to thiazole orange
Excerpt: as §1, §2, §3, §4, §5, §8, §6, §7

P. aeruginosa = assay: as above; assay type: cell-based, Pseudomonas aeruginosa; conditions: optimal dye concentration, corrected for cell number
Method: as §1, §2, §3, §4, §5, §6, §7

B. cereus = assay: as above; assay type: cell-based, Bacillus cereus; conditions: optimal dye concentration, corrected for cell number
Method: as §1, §2, §3, §4, §5, §6, §7

M. luteus = assay: as above; assay type: cell-based, Micrococcus luteus; conditions: optimal dye concentration, corrected for cell number
Method: as §1, §2, §3, §4, §5, §6, §7

nucleic acids = assay: Excitation/emission maxima of dyes complexed with nucleic acids; assay type: physicochemical; design: key: wavelength in nm; conditions: Table 2; dye complexed with nucleic acids
Excerpt: Dye I is lightly colored and is virtually non-fluorescent when diluted in aqueous solution according to the method of the invention. Dye I is highly membrane-permeant and labels all cells, whether live or dead. When Dye I binds with intracellular nucleic acid polymers such as DNA and RNA, the resultant dye-nucleic acid complex becomes extremely fluorescent upon illumination. The quantum yield of the preferred Dye I/DNA complex is greater than 0.02, typically greater than 0.1, preferably greater than 0.2, and more preferably greater than 0.3. Typically, Dye I combines with intracellular nucleic acids to give a green or red fluorescence. When excited at a wavelength between about 300 nm and about 500 nm, the dyes complexed with nucleic acids have an emission maximum between about 500 and about 610 nm (see Table 2). Preferably, Dye I complexed with nucleic acids has an emission maximum of between about 500 nm and about 535 nm, resulting in a true green fluorescent signal in cells of the sample where Dye I is present alone.

K. pneumonia = assay: Fluorescence per cell, stained bacteria (microtiter plate reader); assay type: cell-based, Klebsiella pneumonia; conditions: optimal dye concentration, corrected for cell number
Method: as §1, §2, §3, §4, §5, §6, §7

S. aureus = assay: as above; assay type: cell-based, Staphylococcus aureus; conditions: for Fluorescence/Cell (ex 485/em 530): S. aureus, optimal dye concentration, corrected for cell number; for Normalized Fluorescence/cell (ex 485 nm/em 530 nm), Staphylococcus aureus: scaled to thiazole orange
Excerpt: as §1, §2, §3, §4, §5, §8, §6, §7

S. oranienburg = assay: as above; assay type: cell-based, Salmonella oranienburg; conditions: optimal dye concentration, corrected for cell number
Method: as §1, §2, §3, §4, §5, §6, §7

S. pyogenes = assay: as above; assay type: cell-based, Streptococcus pyogenes; conditions: optimal dye concentration, corrected for cell number
Method: as §1, §2, §3, §4, §5, §6, §7

[1] = "probably", temperature not stated

## 5-(and-6)-Carboxy-2',7'-dichloro-fluorescein diacetate
Intact cells
  pH sensitivity: Lower pH-

## CC(=O)OCOC(=O)c1ccc2c(c1)C(=O)OC21c2ccc(OC(C)=O)cc2Oc2cc(OC(C)=O)ccc21 [5-Carboxyfluorescein diacetate AM]
Intact cells; 37° C.
  T1/2 (time for half of dye to leak from intact cells): < 30 min
Intact cells
  Loading: readily loaded
  Retention: Moderate

## CC(=O)OCOC(=O)CN(CC(=O)OCOC(C)=O)Cc1c(O)ccc2c(C)cc(=O)oc12 [Calcein Blue AM]
Intact cells; [1]
  T1/2 (time for half of dye to leak from intact cells): < 15 min
Intact cells
  Loading: Easily loaded

## CC(=O)Oc1ccc2c(c1)Oc1cc(OC(C)=O)ccc1C21OC(=O)c2ccccc21 [Fluorescein diacetate]
Intact cells; 37° C.
  T1/2 (time for half of dye to leak from intact cells): < 10 min
Intact cells
  Loading: Easily loaded
  Retention: poorly retained

## O=C(O)c1ccccc1C1c2cc(Cl)c(O)cc2Oc2cc(O)c(Cl)cc21 [H2 DCF]
Intact cells
  Retention: poor retention
  pH sensitivity: pH-insensitive

## CC[N+](C)(CC)CCC[n+]1c(-c2ccccc2)c2cc(N)ccc2c2ccc(N)cc21 [Propidium iodide]
Calf thymus DNA
  EM max: 617 nm
  EX max: 536 nm

## C[n+]1c(C=C2C=CN(CCC[N+](C)(C)C)c3ccccc32)sc2ccccc21 [TO-PRO-1]
Calf thymus DNA
  EM max: 531 nm
  EX max: 515 nm

## C[n+]1c(C=CC=C2C=CN(CCC[N+](C)(C)C)c3ccccc32)sc2ccccc21 [TO-PRO-3]
Calf thymus DNA
  EM max: 661 nm
  EX max: 642 nm

## C[n+]1c(C=C2C=CN(CCC[N+](C)(C)CCC[N+](C)(C)CCCN3C=CC(=Cc4sc5ccccc5[n+]4C)c4ccccc43)c3ccccc32)sc2ccccc21 [TOTO-1]
Calf thymus DNA
  EM max: 533 nm
  EX max: 514 nm

## C[n+]1c(C=CC=C2C=CN(CCC[N+](C)(C)CCC[N+](C)(C)CCCN3C=CC(=CC=Cc4sc5ccccc5[n+]4C)c4ccccc43)c3ccccc32)sc2ccccc21 [TOTO-3]
Calf thymus DNA
  EM max: 660 nm
  EX max: 642 nm

## C[n+]1c(C=C2C=CN(CCC[N+](C)(C)C)c3ccccc32)oc2ccccc21 [YO-PRO-1]
Calf thymus DNA
  EM max: 509 nm
  EX max: 491 nm

## C[n+]1c(C=CC=C2C=CN(CCC[N+](C)(C)C)c3ccccc32)oc2ccccc21 [YO-PRO-3]
Calf thymus DNA
  EM max: 631 nm
  EX max: 612 nm

## C[n+]1c(C=C2C=CN(CCC[N+](C)(C)CCC[N+](C)(C)CCCN3C=CC(=Cc4oc5ccccc5[n+]4C)c4ccccc43)c3ccccc32)oc2ccccc21 [YOYO-1]
Calf thymus DNA
  EM max: 509 nm
  EX max: 491 nm

## C[n+]1c(C=CC=C2C=CN(CCC[N+](C)(C)CCC[N+](C)(C)CCCN3C=CC(=CC=Cc4oc5ccccc5[n+]4C)c4ccccc43)c3ccccc32)oc2ccccc21 [YOYO-3]
Calf thymus DNA
  EM max: 631 nm
  EX max: 612 nm

## C[n+]1c(C=C2C=C(Cl)N(c3ccccc3)c3ccccc32)sc2ccccc21 [compound 591]
S. sonnei
  Fluorescence/Cell (ex 485/em 530): 1
DNA
  Normalized QY: 0.5
  QY (DNA): 0.09
  QY: 0.09
E. coli
  Fluorescence/Cell (ex 485/em 530): 2
  Normalized Fluorescence/cell (ex 485 nm/em 530 nm), Escherichia coli: 1
P. aeruginosa
  Fluorescence/Cell (ex 485/em 530): 1
B. cereus
  Fluorescence/Cell (ex 485/em 530): 58
M. luteus
  Fluorescence/Cell (ex 485/em 530): 375
Nucleic acids
  EM max: 532
  EX max: 509
K. pneumonia
  Fluorescence/Cell (ex 485/em 530): 2
S. aureus
  Fluorescence/Cell (ex 485/em 530): 3
  Normalized Fluorescence/cell (ex 485 nm/em 530 nm), Staphylococcus aureus: 0.9
S. oranienburg
  Fluorescence/Cell (ex 485/em 530): 2
S. pyogenes
  Fluorescence/Cell (ex 485/em 530): < 0.01

## CC1=CC(=Cc2sc3ccccc3[n+]2C)c2ccccc2N1c1ccccc1 [compound 613]
S. sonnei
  Fluorescence/Cell (ex 485/em 530): 6
DNA
  Normalized QY: 1.8
  QY (DNA): 0.33
  QY: 0.33
E. coli
  Fluorescence/Cell (ex 485/em 530): 12
  Normalized Fluorescence/cell (ex 485 nm/em 530 nm), Escherichia coli: 6
P. aeruginosa
  Fluorescence/Cell (ex 485/em 530): 6
B. cereus
  Fluorescence/Cell (ex 485/em 530): 242
M. luteus
  Fluorescence/Cell (ex 485/em 530): 75
Nucleic acids
  EM max: 523
  EX max: 506
K. pneumonia
  Fluorescence/Cell (ex 485/em 530): 10
S. aureus
  Fluorescence/Cell (ex 485/em 530): 10
  Normalized Fluorescence/cell (ex 485 nm/em 530 nm), Staphylococcus aureus: 3.1
S. oranienburg
  Fluorescence/Cell (ex 485/em 530): 10
S. pyogenes
  Fluorescence/Cell (ex 485/em 530): 0.02

## CCN(CC)C1=CC(=Cc2sc3ccccc3[n+]2C)c2ccccc2N1c1ccccc1 [compound 619]
S. sonnei
  Fluorescence/Cell (ex 485/em 530): 13
DNA
  Normalized QY: 3.4
  QY (DNA): 0.62
  QY: 0.62
E. coli
  Fluorescence/Cell (ex 485/em 530): 26
  Normalized Fluorescence/cell (ex 485 nm/em 530 nm), Escherichia coli: 13
P. aeruginosa
  Fluorescence/Cell (ex 485/em 530): 16
B. cereus
  Fluorescence/Cell (ex 485/em 530): 827
M. luteus
  Fluorescence/Cell (ex 485/em 530): 149
Nucleic acids
  EM max: 517
  EX max: 488
K. pneumonia
  Fluorescence/Cell (ex 485/em 530): 12
S. aureus
  Fluorescence/Cell (ex 485/em 530): 47
  Normalized Fluorescence/cell (ex 485 nm/em 530 nm), Staphylococcus aureus: 14.7
S. oranienburg
  Fluorescence/Cell (ex 485/em 530): 18
S. pyogenes
  Fluorescence/Cell (ex 485/em 530): 0.06

## Carboxycalcein Blue AM
Intact cells; [1]
  T1/2 (time for half of dye to leak from intact cells): < 60 min
Intact cells
  Loading: Easily loaded

## Carboxyfluorescein diacetate
Intact cells; 37° C.
  T1/2 (time for half of dye to leak from intact cells): < 30 min
Intact cells
  Retention: Moderate
  pH sensitivity: sensitive

## Carboxynaphtho-fluorescein diacetate
Intact cells
  pH sensitivity: sensitive

## Sulfofluorescein diacetate
Intact cells
  Loading: More difficult
  Retention: better
